Assay results published in publication PMC7673538 (PLoS Biology, 2020).
“And” between values parts separate entries of the source, which are not always exact repeats. Equal values may be shown once. Read-outs that look alike come from different tables or passages of the source.

Assays:
[1] = system: EV-D68; assay: microbe, parasite or virus in culture; type: cell-based, enterovirus D68
[2] = system: HRV-B14; assay: microbe, parasite or virus in culture; type: cell-based, human rhinovirus
[3] = system: CV-A24; assay: microbe, parasite or virus in culture; type: cell-based, coxsackievirus A24; conditions: Enterovirus C, CVA24, HeLa R19, read-out: EC50 CV-A24
[4] = target: T1, human SERT (Homo sapiens, UniProt P31645); type: cell-based; conditions: for SERT, Mean (Figure 8B): Control = 100.00; for SERT, Mean as % (Figure 8B): Control = 100%
T1 construct: expressed in transfected cells; host or cells: HEK293 (gift of Dr. Hoener, F. Hoffmann-La Roche)

[5] = target: T2, human NET (Homo sapiens, UniProt P23975); type: cell-based; conditions: for NET, Mean (Figure 8B): Control = 100; for NET, Mean as % (Figure 8B): Control = 100%
T2 construct: expressed in transfected cells; host or cells: HEK293 (gift of Dr. Hoener, F. Hoffmann-La Roche)

[6] = system: HRV-A2; assay: microbe, parasite or virus in culture; type: cell-based, human rhinovirus
[7] = system: EV-A71; assay: microbe, parasite or virus in culture; type: cell-based, enterovirus A71; conditions: Concentration 0.0046 µM

T1 sequence (P31645 whole entry): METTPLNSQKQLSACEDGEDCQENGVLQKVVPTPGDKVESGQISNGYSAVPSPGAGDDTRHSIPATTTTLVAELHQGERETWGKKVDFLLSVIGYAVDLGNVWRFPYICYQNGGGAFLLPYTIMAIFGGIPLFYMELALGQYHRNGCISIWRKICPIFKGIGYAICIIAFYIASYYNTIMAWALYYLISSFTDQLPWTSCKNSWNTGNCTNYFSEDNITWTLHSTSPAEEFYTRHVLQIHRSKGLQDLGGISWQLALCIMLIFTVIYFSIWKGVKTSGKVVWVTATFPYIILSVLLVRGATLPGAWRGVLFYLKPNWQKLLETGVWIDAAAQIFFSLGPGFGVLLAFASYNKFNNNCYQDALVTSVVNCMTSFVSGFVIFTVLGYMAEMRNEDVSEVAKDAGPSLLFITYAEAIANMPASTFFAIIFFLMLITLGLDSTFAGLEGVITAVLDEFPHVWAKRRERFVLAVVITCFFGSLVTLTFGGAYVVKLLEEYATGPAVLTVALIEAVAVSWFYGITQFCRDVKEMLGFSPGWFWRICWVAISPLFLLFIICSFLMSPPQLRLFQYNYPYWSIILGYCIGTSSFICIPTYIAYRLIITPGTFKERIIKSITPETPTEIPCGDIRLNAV
T2 sequence (P23975 whole entry): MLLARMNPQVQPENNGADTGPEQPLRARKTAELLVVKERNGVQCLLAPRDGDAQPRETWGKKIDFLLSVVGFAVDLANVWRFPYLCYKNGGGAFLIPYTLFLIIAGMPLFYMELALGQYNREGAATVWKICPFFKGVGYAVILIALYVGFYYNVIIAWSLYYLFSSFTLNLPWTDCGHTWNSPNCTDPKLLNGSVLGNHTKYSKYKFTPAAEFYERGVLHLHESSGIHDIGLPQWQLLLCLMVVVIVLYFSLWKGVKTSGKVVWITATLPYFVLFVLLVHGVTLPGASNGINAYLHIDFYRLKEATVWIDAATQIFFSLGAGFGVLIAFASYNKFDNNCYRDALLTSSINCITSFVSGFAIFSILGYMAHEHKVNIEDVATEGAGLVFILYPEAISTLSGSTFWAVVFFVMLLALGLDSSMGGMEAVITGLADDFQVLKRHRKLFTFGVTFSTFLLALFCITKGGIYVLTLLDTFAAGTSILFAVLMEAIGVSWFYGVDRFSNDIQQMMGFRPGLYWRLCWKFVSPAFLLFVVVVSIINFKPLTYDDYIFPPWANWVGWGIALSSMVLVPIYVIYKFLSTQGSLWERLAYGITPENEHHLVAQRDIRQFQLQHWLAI

O=C(c1cc[nH]c1)N(Cc1ccc(F)cc1)c1ccccc1 [Compound 12b, N-(4-Fluorobenzyl)-N-phenyl-1H-pyrrole-3-carboxamide]
Figure 7 dose-response raw data, EV-D68 (triplicate values) ([1]; Concentration 0.001 µM): 11.1333 and 12.4782 and 12.9265
Figure 7 dose-response raw data, EV-D68 (triplicate values) ([1]; Concentration 0.0046 µM): 12.1793 and 12.9265 and 15.0187
Figure 7 dose-response raw data, EV-D68 (triplicate values) ([1]; Concentration 0.0137 µM): 11.1333 and 12.4782 and 12.9265
Figure 7 dose-response raw data, EV-D68 (triplicate values) ([1]; Concentration 0.0412 µM): 10.386 and 11.4321 and 12.9265
Figure 7 dose-response raw data, EV-D68 (triplicate values) ([1]; Concentration 0.1235 µM): 107.007 and 105.506 and 109.76
Figure 7 dose-response raw data, EV-D68 (triplicate values) ([1]; Concentration 0.3704 µM): 98.999 and 100.501 and 112.888
Figure 7 dose-response raw data, EV-D68 (triplicate values) ([1]; Concentration 1.1111 µM): 104.38 and 102.252 and 111.637
Figure 7 dose-response raw data, EV-D68 (triplicate values) ([1]; Concentration 3.3333 µM): 103.504 and 113.389
Figure 7 dose-response raw data, EV-D68 (triplicate values) ([1]; Concentration 10 µM): 95.6204 and 100.626 and 112.763
EC50 ([1]; Enterovirus D, EVD68, HeLa R19, read-out: EC50 EV-D68): 86 ± 7.1 nM
EC50 ([1]; Enterovirus D, EVD68, HeLa R19, read-out: Table in Figure 7A, EVD68, AVERAGE): 85.7 nM
EC50 ([1]; Enterovirus D, EVD68, HeLa R19, read-out: Table in Figure 7A, EVD68, exp1-exp3): 88 nM
EC50 ([1]; read-out: Table in Figure 7A, EVD68, exp1-exp3): 93 nM and 76 nM
Figure 7 dose-response raw data, HRV_B14 (triplicate values) ([2]; Concentration 0.0046 µM): 15.2266 and 14.5606
Figure 7 dose-response raw data, HRV_B14 (triplicate values) ([2]; Concentration 0.0137 µM): 10.2522 and 17.3246 and 10.943
Figure 7 dose-response raw data, HRV_B14 (triplicate values) ([2]; Concentration 0.0412 µM): 15.2266 and 14.5606 and 17.3246
Figure 7 dose-response raw data, HRV_B14 (triplicate values) ([2]; Concentration 0.1235 µM): 106.02 and 106.455 and 105.786
Figure 7 dose-response raw data, HRV_B14 (triplicate values) ([2]; Concentration 0.3704 µM): 105.351 and 107.391 and 106.589
Figure 7 dose-response raw data, HRV_B14 (triplicate values) ([2]; Concentration 1.1111 µM): 98.3946 and 107.926 and 101.94
Figure 7 dose-response raw data, HRV_B14 (triplicate values) ([2]; Concentration 3.3333 µM): 99.5652 and 104.147 and 110.034
Figure 7 dose-response raw data, HRV_B14 (triplicate values) ([2]; Concentration 11.1111 µM): 98.3946 and 107.926 and 101.94
Figure 7 dose-response raw data, HRV_B14 (triplicate values) ([2]; Concentration 33.3333 µM): 99.2522 and 114.147 and 100.034
Figure 7 dose-response raw data, HRV_B14 (triplicate values) ([2]; Concentration 100 µM): 99.5652 and 104.147 and 100.034
EC50 ([2]; Human rhinovirus sp., HRV14 / HRVB14, HeLa R19, read-out: Table in Figure 7A, HRV14, AVERAGE): 95.3 nM
EC50 ([2]; Human rhinovirus sp., HRV14 / HRVB14, HeLa R19, read-out: Table in Figure 7A, HRV14, exp1-exp3): 112 nM
EC50 ([2]; Human rhinovirus sp., HRVB14, HeLa R19, read-out: EC50 HRV-B14): 95 ± 120 nM
EC50 ([2]; read-out: Table in Figure 7A, HRV14, exp1-exp3): 90 nM and 84 nM
EC50 [3]: 1330 ± 240 nM
SERT, Mean (Figure 8B) ([4]; 1µM): 88.76
SERT, Mean as % (Figure 8B) ([4]; 1µM): 89%
SERT, Mean (Figure 8B) ([4]; 100µM): 102.47
SERT, Mean as % (Figure 8B) ([4]; 100µM): 102%
inhibition of SERT-mediated uptake (in words) ([4]; HEK293 cells expressing human SERT, 1 and 100 μM): neither 12a, 19b, 19d, nor the combined compound 12b inhibited
NET, Mean (Figure 8B) ([5]; 1µM): 100
NET, Mean as % (Figure 8B) ([5]; 1µM): 100%
NET, Mean (Figure 8B) ([5]; 100µM): 103.417
NET, Mean as % (Figure 8B) ([5]; 100µM): 103%
inhibition of NET function (in words) ([5]; HEK293 cells expressing human NET, 1 μM or 100 μM): neither 12a, 19b, 19d, nor the combined compound 12b inhibited
Figure 7 dose-response raw data, HRV-A2 (triplicate values) ([6]; Concentration 0.0046 µM): 14.2402 and 14.6225 and 13.0933
Figure 7 dose-response raw data, HRV-A2 (triplicate values) ([6]; Concentration 0.0137 µM): 14.2402 and 14.6225 and 13.0933
Figure 7 dose-response raw data, HRV-A2 (triplicate values) ([6]; Concentration 0.0412 µM): 15.1004 and 21.3125 and 13.3801
Figure 7 dose-response raw data, HRV-A2 (triplicate values) ([6]; Concentration 0.1235 µM): 12.6155 and 13.1889 and 12.7111
Figure 7 dose-response raw data, HRV-A2 (triplicate values) ([6]; Concentration 0.3704 µM): 13.0933 and 13.1889 and 13.7623
Figure 7 dose-response raw data, HRV-A2 (triplicate values) ([6]; Concentration 1.1111 µM): 12.6155 and 14.1446 and 14.4314
Figure 7 dose-response raw data, HRV-A2 (triplicate values) ([6]; Concentration 3.3333 µM): 83.2845 and 84.4313 and 84.7181
Figure 7 dose-response raw data, HRV-A2 (triplicate values) ([6]; Concentration 11.1111 µM): 99.5652 and 104.147 and 110.034
Figure 7 dose-response raw data, HRV-A2 (triplicate values) ([6]; Concentration 33.3333 µM): 100.093 and 102.52 and 105.578
Figure 7 dose-response raw data, HRV-A2 (triplicate values) ([6]; Concentration 100 µM): 100.093 and 102.52 and 105.578
EC50 ([6]; Human rhinovirus sp., HRV2 / HRVA2, HeLa R19, read-out: Table in Figure 7A, HRV2, AVERAGE): 2750 nM
EC50 ([6]; Human rhinovirus sp., HRV2 / HRVA2, HeLa R19, read-out: Table in Figure 7A, HRV2, exp1-exp3): 2760 nM
EC50 ([6]; read-out: Table in Figure 7A, HRV2, exp1-exp3): 3210 nM and 2280 nM
Figure 7 dose-response raw data, EV-A71 (triplicate values) [7]: 8.524 and 14.1813 and 13.8349
